Source: patent US8183239B2, “Substituted piperazines and piperidines as modulators of the neuropeptide Y2 receptor” (Janssen Pharmaceutica NV, priority 2005, dated 2012)
pIC50: −log10 of the molar value. Like-named read-outs stand apart in the source and are kept apart here.

Legend:
rats = settings: icv administration; cited from earlier work
Y2 receptors [1] = target: T1, Y2 receptors (Homo sapiens, UniProt P49146); assay: Radioligand binding assay ([125I]PYY, KAN-Ts cell membranes); settings: average of results, read-out: IC50
T1 construct: endogenous in cells; host or cells: KAN-Ts cells (membranes)
T1 sequence (P49146 1-381): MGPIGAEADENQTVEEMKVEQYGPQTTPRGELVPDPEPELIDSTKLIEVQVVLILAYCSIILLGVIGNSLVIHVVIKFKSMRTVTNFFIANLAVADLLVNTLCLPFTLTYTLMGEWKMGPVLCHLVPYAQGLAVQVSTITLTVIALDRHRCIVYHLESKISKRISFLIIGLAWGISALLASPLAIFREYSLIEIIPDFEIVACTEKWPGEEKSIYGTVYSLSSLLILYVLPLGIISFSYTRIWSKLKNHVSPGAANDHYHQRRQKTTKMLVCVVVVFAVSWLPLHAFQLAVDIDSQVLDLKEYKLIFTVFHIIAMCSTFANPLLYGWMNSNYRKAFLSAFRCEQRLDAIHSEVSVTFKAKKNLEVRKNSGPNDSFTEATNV
Outline: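 Membranes from KAN-Ts cells endogenously expressing Y2 incubated 1 h at rt with 80 pM [^125I]PYY ± test compound in HEPES buffer with NaCl, Ca^2+ and Mg^2+. Bound radioactivity collected by filtration; specific binding defined with […]. IC50 from sigmoidal fit, averaged over 3-8 duplicate experiments.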

Y2 receptors [2] = target: T1, Y2 receptors; assay: [35S]GTPγS binding assay in KAN-Ts cells (inhibition of PYY-stimulated binding); type: biochemical; settings: KAN-Ts membranes
Description: [^35S] GTPγS binding assay in KAN-Ts cells
Membranes from KAN-Ts cells were prepared as described above. Membranes were thawed on ice and diluted in 50 mM Tris-HCl buffer, pH 7.4 containing 10 mM MgCl2, 1 mM EDTA, 100 mM NaCl, […], 0.25% BSA. Assay mixture ([…]) were preincubated with compounds for 30 min at rt. Then, […] of [^35S]GTPγS in assay buffer was added to a final concentration of 200 pM and the assay mixtures were incubated for 1 h at rt. Reactions were terminated by rapid filtration thought GF/C filters. Filters were washed twice with ice cold 50 mM Tris-HCl, pH 7.4 containing 10 mM MgCl2. Basal [^35S]GTPγS was measured in the absence of compounds. In initial experiments, nonspecific binding was measured in the presence of […]. This nonspecific binding never exceeded 10% of basal binding and was thus not subtracted from experimental data. Stimulation of [^35S]GTPγS is presented as percentage over basal and was calculated as one hundred times the difference between stimulated and basal binding (in cpm). […] EC50 (concentration of compound at which 50% of its own maximal stimulation is obtained) and IC50 (concentration of its own maximal inhibition of PYY-stimulated [^35S]GTPγS binding is obtained) were derived from the curves. IC50 values were corrected as follows: corrected IC50 (IC50corr)=IC50/(1+[PYY]/EC50 (PYY)) and pIC50corr=−log IC50corr.

| pIC50 (Y2 receptors [1]; Table 2, [125I]PYY 80 pM) | SMILES | also measured |
| --- | --- | --- |
| 6.49 | CCC1CCCCN1C(=O)Cc1ccc(N2CCN(C(C(=O)N(CC)CC)c3ccccc3)CC2)c(F)c1 (stereo not shown) [Example 277, N,N-Diethyl-2-(4-{4-[2-(2-ethyl-piperidin-1-yl)-2-oxo-ethyl]-2-fluoro-phenyl}-piperazin-1-yl)-2-phenyl-acetamide] | – |
| 6.27 | CCN(CC)C(=O)C(c1ccccc1)N1CCN(c2ccc(CC(=O)N3C(C)CCC3C)cc2F)CC1 (stereo not shown) [Example 279, 2-(4-{4-[2-(2,5-Dimethyl-pyrrolidin-1-yl)-2-oxo-ethyl]-2-fluoro-phenyl}-piperazin-1-yl)-N,N-diethyl-2-phenyl-acetamide] | – |
| 6.24 | CCN(CC)C(=O)C(c1ccccc1)N1CCN(c2ccc(CC(=O)N3CCCCC3c3cccnc3)cc2F)CC1 (stereo not shown) [Example 280, N,N-Diethyl-2-(4-{2-fluoro-4-[2-oxo-2-(3,4,5,6-tetrahydro-2H-[2,3′]bipyridinyl-1-yl)-ethyl]-phenyl}-piperazin-1-yl)-2-phenyl-acetamide] | – |
| 6.25 | CCC(CC)NC(=O)Cc1ccc(N2CCN(C(C(=O)N(CC)CC)c3ccccc3)CC2)c(F)c1 (stereo not shown) [Example 281, N,N-Diethyl-2-(4-{4-[(1-ethyl-propylcarbamoyl)-methyl]-2-fluoro-phenyl}-piperazin-1-yl)-2-phenyl-acetamide] | – |
| 6.03 | CCN(CC)C(=O)C(c1ccccc1)N1CCN(c2ccc(CC(=O)N3CCCC3C)cc2F)CC1 (stereo not shown) [Example 282, N,N-Diethyl-2-(4-{2-fluoro-4-[2-(2-methyl-pyrrolidin-1-yl)-2-oxo-ethyl]-phenyl}-piperazin-1-yl)-2-phenyl-acetamide] | – |
| 5.92 | CCN(CC)C(=O)C(c1ccccc1)N1CCN(c2ccc(CC(=O)N3CCCC3)cc2F)CC1 (stereo not shown) [Example 283, N,N-Diethyl-2-{4-[2-fluoro-4-(2-oxo-2-pyrrolidin-1-yl-ethyl)-phenyl]-piperazin-1-yl}-2-phenyl-acetamide] | – |
| 5.82 | CCN(CC)C(=O)Cc1ccc(N2CCN(C(C(=O)N(CC)CC)c3ccccc3)CC2)c(F)c1 (stereo not shown) [Example 284] | – |
| 5.37 | CCNC(=O)Cc1ccc(N2CCN(C(C(=O)N(CC)CC)c3ccccc3)CC2)c(F)c1 (stereo not shown) [Example 290, N,N-Diethyl-2-[4-(4-ethylcarbamoylmethyl-2-fluoro-phenyl)-piperazin-1-yl]-2-phenyl-acetamide] | – |
| 5.06 | CCN(CC)C(=O)C(c1ccccc1)N1CCN(c2ccc(CC(=O)NC3CCCC3)cc2F)CC1 (stereo not shown) [Example 291, 2-[4-(4-Cyclopentylcarbamoylmethyl-2-fluoro-phenyl)-piperazin-1-yl]-N,N-diethyl-2-phenyl-acetamide] | – |

Further lines, the compound ahead of its results:

| SMILES | pIC50 (Y2 receptors [1]; Table 2, [125I]PYY 80 pM) | also measured |
| --- | --- | --- |
| N=C(N)NCCC[C@H](NC(=O)CC1(CC(=O)N2CCN(C3c4ccccc4NC(=O)c4ccccc43)CC2)CCCC1)C(=O)NCCn1c(=O)n(-c2ccccc2)n(-c2ccccc2)c1=O (stereo partly shown) [BIIE0246] | – | ethanol self-administration (rats): dose dependently reduced ethanol self-administration |
| CCNC(=O)C(c1ccccc1)C1CCN(c2ccc(NC(=O)Nc3c(C)noc3C)cc2F)CC1 (stereo not shown) [Example 10, 2-(1-{4-[3-(3,5-Dimethyl-isoxazol-4-yl)-ureido]-2-fluoro-phenyl}-piperidin-4-yl)-N-ethyl-2-phenyl-acetamide] | – | pIC50 (Y2 receptors [1]; Table 1, [125I]PYY 80 pM): 7.82; functional behaviour in [35S]GTPγS assay (Y2 receptors [2]): antagonist |
| CCN(CC)C(=O)C(c1ccccc1)N1CCN(c2ccc(N3CCCC3=O)cc2F)CC1 (stereo not shown) [Example 274, N,N-Diethyl-2-{4-[2-fluoro-4-(2-oxo-pyrrolidin-1-yl)-phenyl]-piperazin-1-yl}-2-phenyl-acetamide] | 5.80 | – |
| CCN(CC)C(=O)C(c1ccccc1)N1CCN(c2ccc(CC(=O)N3CCCCC3c3ccccc3)cc2F)CC1 (stereo not shown) [Example 275, N,N-Diethyl-2-(4-{2-fluoro-4-[2-oxo-2-(2-phenyl-piperidin-1-yl)-ethyl]-phenyl}-piperazin-1-yl)-2-phenyl-acetamide] | 6.85 | – |
| CCN(CC)C(=O)C(c1ccccc1)N1CCN(c2ccc(CC(=O)N3CCCC3c3ccccc3)cc2F)CC1 (stereo not shown) [Example 276, N,N-Diethyl-2-(4-{2-fluoro-4-[2-oxo-2-(2-phenyl-pyrrolidin-1-yl)-ethyl]-phenyl}-piperazin-1-yl)-2-phenyl-acetamide] | 6.70 | – |
| CCN(CC)C(=O)C(c1ccccc1)N1CCN(c2ccc(CC(=O)N(C)Cc3ccco3)cc2F)CC1 (stereo not shown) [Example 278, N,N-Diethyl-2-(4-{2-fluoro-4-[(furan-2-ylmethyl-methyl-carbamoyl)-methyl]-phenyl}-piperazin-1-yl)-2-phenyl-acetamide] | 6.49 | – |
| CCN(CC)C(=O)C(c1ccccc1)N1CCN(c2ccc(CC(=O)NCc3ccccc3)cc2F)CC1 (stereo not shown) [Example 285] | 5.72 | – |
| CCN(CC)C(=O)C(c1ccccc1)N1CCN(c2ccc(CC(=O)N(C)Cc3ccccc3)cc2F)CC1 (stereo not shown) [Example 286] | 5.68 | – |
| CCN(Cc1ccccc1)C(=O)Cc1ccc(N2CCN(C(C(=O)N(CC)CC)c3ccccc3)CC2)c(F)c1 (stereo not shown) [Example 287] | 5.66 | – |
| CCC(CC)NC(=O)Cc1ccc(N2CCN(C(C(=O)N3CCC(F)(F)C3)c3ccccc3)CC2)c(F)c1 (stereo not shown) [Example 288, 2-(4-{4-[2-(3,3-Difluoro-pyrrolidin-1-yl)-2-oxo-1-phenyl-ethyl]-piperazin-1-yl}-3-fluoro-phenyl)-N-(1-ethyl-propyl)-acetamide] | 5.68 | – |
| CCN(CC)C(=O)Cc1ccc(N2CCN(C(C(=O)N3CCC(F)(F)C3)c3ccccc3)CC2)c(F)c1 (stereo not shown) [Example 289, 2-(4-{4-[2-(3,3-Difluoro-pyrrolidin-1-yl)-2-oxo-1-phenyl-ethyl]-piperazin-1-yl}-3-fluoro-phenyl)-N,N-diethyl-acetamide] | 5.46 | – |
| CCC(CC)C(=O)Nc1ccc(N2CCN(C(C(=O)N(C)C)c3ccccc3)CC2)c(F)c1 (stereo not shown) [Example 292, N-{4-[4-(Dimethylcarbamoyl-phenyl-methyl)-piperazin-1-yl]-3-fluoro-phenyl}-2-ethyl-butyramide] | 6.98 | – |
